Source: US20250345329A1, “HETEROARYL DERIVATIVE COMPOUND AND USES THEREOF” (VORONOI, INC., priority 2022, published 2025)

Tests used:
[1] = tested on: Ba/F3 expressing EGFR Del19/T790M/C797S mutations; assay: Inhibitory activity on proliferation of Ba/F3 cell overexpressing EGFR C797S (Cell Titer-Glo); assay type: cell-based; conditions: Mus musculus, BaF3; 72 hours treatment, cell growth rate vs control; read-out: Ba/F3 (EGFR DTC) GI50
Description: <Experimental Example 2> Evaluation of Inhibitory Activity on Proliferation of Ba/F3 Cell Overexpressing EGFR C797S
The following experiments were performed to evaluate the inhibitory activity of the compounds according to the present invention on the proliferation of Ba/F3 expressing EGFR Del19/T790M/C797S mutations.
Ba/F3 cells were cultured in RPMI-1640 medium supplemented with 10% fetal bovine serum (FBS), and 3000 cells were seeded into each well of a white clear bottom 96 well plate (Corning) 24 hours prior to compound treatment. The compounds were diluted in dimethyl sulfoxide (3-fold dilution, total of 12 concentrations) and injected at 1 μl each so that the final concentration was […] to 5 μM. After 72 hours post treatment with compounds, living cells were reacted in a 37° C., CO2 incubator for […], followed by 10 minutes at room temperature using Cell Titer-Glo luminescent cell-viability reagent (Promega), and the luminescence intensity thereof was measured using a reader (SynergyNeo2, Biotek). The result values were calculated as a cell growth rate (%) compared to the control group. GI50 values were calculated using the GraphPad Prism version 8.4.3 (GraphPad software Inc., San Diego) program.

[2] = target: T1, human EGFR (d746-750/T790M/C797S) (Homo sapiens, UniProt P00533, C797S/DEL746-750/T790M); assay: EGFR C797S enzyme inhibition activity (ADP-Glo kinase assay); assay type: biochemical; conditions: purified enzyme 3 ng, ATP 5 μM, 25° C., 1 hour, luminescence; read-out: EGFR DTC Enzyme IC50
T1 construct: human EGFR (d746-750/T790M/C797S) (668-end, SignalChem); purchased SignalChem
T1 sequence (P00533 with tags, fused parts or gaps DEL746-750/T790M/C797S): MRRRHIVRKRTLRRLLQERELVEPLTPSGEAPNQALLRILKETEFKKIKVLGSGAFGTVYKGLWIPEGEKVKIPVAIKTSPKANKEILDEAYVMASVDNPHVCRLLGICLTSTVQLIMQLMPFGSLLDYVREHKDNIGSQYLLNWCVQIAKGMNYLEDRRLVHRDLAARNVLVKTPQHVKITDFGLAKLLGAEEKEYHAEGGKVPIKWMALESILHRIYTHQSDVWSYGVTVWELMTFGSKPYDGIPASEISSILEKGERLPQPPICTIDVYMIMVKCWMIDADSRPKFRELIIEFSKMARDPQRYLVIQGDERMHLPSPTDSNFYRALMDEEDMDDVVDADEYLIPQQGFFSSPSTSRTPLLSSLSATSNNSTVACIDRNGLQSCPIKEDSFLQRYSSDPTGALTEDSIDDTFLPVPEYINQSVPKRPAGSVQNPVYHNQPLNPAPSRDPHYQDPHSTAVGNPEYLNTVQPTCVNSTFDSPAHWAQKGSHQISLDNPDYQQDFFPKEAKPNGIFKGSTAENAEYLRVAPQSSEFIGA
Description: <Experimental Example 1> Evaluation of EGFR C797S Enzyme Inhibition Activity
The compounds according to the present invention were reacted together with purified human EGFR (d746-750/T790M/C797S) (668-end, SignalChem) enzyme and a specific substrate and evaluated for enzyme inhibitory activity as described below. The reaction buffer consisted of 40 mM Tris-HCl pH 7.4, 20 mM MgCl2, 0.5 mg/ml BSA, and 50 μM DTT, and all reactions of the test substances were performed in reaction buffers. The compounds were serially diluted in 12 steps from a 10 mM DMSO stock, and the enzyme activity was measured at the final compound concentrations of 10, 3, 1, 0.3, 0.1, 0.03, 0.01, 0.003, 0.001, 0.0003, 0.0001, and 0 μM. In the assay, human EGFR (d746-750/T790M/C797S) (3 ng) enzyme was reacted with purified ATP (5 μM) and enzyme substrate (0.2 μg) at 25° C. for 1 hour, and the enzyme activity was determined using the in vitro ADP-Glo™ kinase assay (Promega). The enzyme activity inhibition was measured via luminescence by reacting the enzyme activity reaction solution, ADP-Glo reaction solution, and enzyme activity detection solution in a 2:2:1 ratio. Based on the luminescence of the enzyme activity of the solvent control group that was not treated with the compound, the degree of the enzyme activity inhibition depending on the treatment concentration of each compound was calculated, wherein the concentration of each compound that inhibited the enzyme activity by 50% was determined as the IC50 (nM) value, which was obtained using GraphPad Prism 8.4.3 (GraphPad software Inc., San Diego).

Row | Compound | GI50 [1] [nM] | IC50 [2] [nM]
1 | CC(C)Nc1cc(Nc2ccnc(-c3cnn(S(=O)(=O)C4CC4)c3)n2)ncc1C(=O)N1C[C@H](CS(C)(=O)=O)[C@H]1C [Example 71, (6-((2-(1-(cyclopropylsulfonyl)-1H-pyrazol-4-yl)pyrimidin-4-yl)amino)-4-(isopropylamino)pyri-din-3-yl)((2R,3S)-2-methyl-3-((methylsulfonyl)meth-yl)azetidin-1-yl)methanone] | 500 to 5000 | < 50
2 | CC(C)Nc1cc(Nc2ccnc(-c3cnn(S(=O)(=O)C4CC4)c3)n2)ncc1C(=O)NC(CCN(C)C)c1ccccc1 (stereo not shown) [Example 53, 6-((2-(1-(cyclopropylsulfonyl)-1H-pyrazol-4-yl)pyrimidin-4-yl)amino)-N-(3-(dimethylamino)-1-phenylpropyl)-4-(isopropylamino)nico-tinamide] | 500 to 5000 | < 50
3 | CC(C)Nc1cc(Nc2ccnc(-c3cnn(S(=O)(=O)C4CC4)c3)n2)ncc1C(=O)NCCCN(C)C(=O)OC(C)(C)C [Example 58, tert-butyl (3-(6-((2-(1-(cyclopropylsulfonyl)-1H-pyrazol-4-yl)pyrimidin-4-yl)amino)-4-(isopropylamino)nico-tinamido)propyl)(meth-yl)carbamate] | 500 to 5000 | 50 to 500
4 | CO[C@H]1CCN(c2nccc(Nc3cc(NC(C)C)c(C(=O)NCCC(F)(F)F)cn3)n2)C[C@H]1F (relative stereo) [Example 98, 6-((2-(cis-3-fluoro-4-methoxypiperidin-1-yl)pyrimidin-4-yl)amino)-4-(isopropylamino)-N-(3,3,3-trifluoropropyl)nico-tinamide] | < 500 | < 50
5 | CC(C)Nc1cc(Nc2ccnc(-c3cnn(S(=O)(=O)C4CC4)c3)n2)ncc1C(=O)NC[C@@H]1CCCN1 [Example 76, (S)-6-((2-(1-(cyclopropylsulfonyl)-1H-pyrazol-4-yl)pyrimidin-4-yl)amino)-4-(isopropylamino)-N-(pyrrolidin-2-ylmethyl)nicotinamide] | 500 to 5000 | < 50
6 | CC(C)Nc1cc(Nc2ccnc(-c3cnn(S(=O)(=O)C4CC4)c3)n2)ncc1C(=O)Nc1cc(N2CCN(C)CC2)cc(C(C)(C)C#N)c1 [Example 40, N-(3-(2-cyanopropan-2-yl)-5-(4-methylpiperazin-1-yl)phenyl)-6-((2-(1-(cyclopropylsulfonyl)-1H-pyrazol-4-yl)pyrimidin-4-yl)amino)-4-(isopropylamino)nico-tinamide] | 500 to 5000 | 50 to 500
7 | CC(C)Nc1cc(Nc2ccnc(-c3cnn(S(=O)(=O)C4CC4)c3)n2)ncc1C(=O)NCc1ccc(C#N)cc1 [Example 55, N-(4-cyanobenzyl)-6-((2-(1-(cyclopropylsulfonyl)-1H-pyrazol-4-yl)pyrimidin-4-yl)amino)-4-(isopropylamino)nico-tinamide] | 500 to 5000 | 50 to 500
8 | CC(C)Nc1cc(Nc2ccnc(-c3cnn(S(=O)(=O)C4CC4)c3)n2)ncc1C(=O)NCCS(=O)(=O)N(C)C [Example 73, 6-((2-(1-(cyclopropylsulfonyl)-1H-pyrazol-4-yl)pyrimidin-4-yl)amino)-N-(2-(N,N-dimethylsulfamoyl)eth-yl)-4-(isopropylamino)nico-tinamide] | 500 to 5000 | < 50
9 | CC(C)Nc1cc(Nc2ccnc(-c3cnn(S(=O)(=O)C4CC4)c3)n2)ncc1C(=O)Nc1cnn(S(=O)(=O)C2CC2)c1 [Example 32, N-(1-(cyclopropylsulfonyl)-1H-pyrazol-4-yl)-6-((2-(1-(cyclopropylsulfonyl)-1H-pyrazol-4-yL)pyrimidin-4-yl)amino)-4-(isopropylamino)nico-tinamide] | 500 to 5000 | 50 to 500
10 | C[C@H]1CCOc2c(cnn2C)-c2nccc(n2)Nc2cc(c(C(=O)N3CC(CS(C)(=O)=O)C3)cn2)N1 [Example 105, (S)-(1^1,6-dimethyl-1^1H-9-oxa-3,5-diaza-2(2,4)-pyrimidina-4(2,4)-pyridina-1(4,5)-pyrazolacyclo-nonaphane-4^5-yl)(3-((methylsulfonyl)meth-yl)azetidin-1-yl)methanone] | 500 to 5000 | < 50
11 | CS(=O)(=O)CC1CN(C(=O)c2cnc(Nc3ccnc(-c4cnn(S(=O)(=O)C5CC5)c4)n3)cc2NC2CCCC2)C1 [Example 6, (4-(cyclopentylamino)-6-((2-(1-(cyclopropylsulfonyl)-1H-pyrazol-4-yl)pyrimidin-4-yl)amino)pyridin-3-yl)(3-((methylsulfonyl)meth-yl)azetidin-1-yl)methanone] | 500 to 5000 | < 50
12 | C[C@H]1CCOc2c(cnn2C)-c2nccc(n2)Nc2cc(c(C(=O)NCC#N)cn2)N1 [Example 80, (S)-N-(cyanomethyl)-1^1,6-dimethyl-1^1H-9-oxa-3,5-diaza-2(2,4)-pyrimidina-4(2,4)-pyridina-1(4,5)-pyrazolacyclo-nonaphane-4^5-carboxamide] | < 500 | < 50
13 | CC(C)Nc1cc(Nc2ccnc(-c3cnn(S(=O)(=O)C4CC4)c3)n2)ncc1C(=O)NCCCN(C)C [Example 34, 6-((2-(1-(cyclopropylsulfonyl)-1H-pyrazol-4-yl)pyrimidin-4-yl)amino)-N-(3-(dimethylamino)pro-pyl)-4-(isopropylamino)nico-tinamide] | 500 to 5000 | < 50
14 | CC(C)Nc1cc(Nc2ccnc(-c3cnn(S(=O)(=O)C4CC4)c3)n2)ncc1C(=O)NCC1CCN(C)CC1 [Example 51, 6-((2-(1-(cyclopropylsulfonyl)-1H-pyrazol-4-yl)pyrimidin-4-yl)amino)-4-(isopropylamino)-N-((1-methylpiperidin-4-yl)methyl)nicotinamide] | 500 to 5000 | < 50
15 | COC(=O)c1cnc2cc1N[C@@H](C)CCOc1c(cnn1C)-c1nccc(n1)N2 [Example 102, methyl(S)-1^1,6-dimethyl-1^1H-9-oxa-3,5-diaza-2(2,4)-pyrimidina-4(2,4)-pyridina-1(4,5)-pyrazolacyclo-nonaphane-4^5-carboxylate] | < 500 | < 50
16 | COC(=O)CCNC(=O)c1cnc(Nc2ccnc(N3CC[C@H](OC)[C@H](F)C3)n2)cc1NC(C)C (relative stereo) [Example 97, methyl 3-(6-((2-(cis-3-fluoro-4-methoxypiperidin-1-yl)pyrimidin-4-yl)amino)-4-(isopropylamino)nico-tinamido)propanoate] | 500 to 5000 | < 50
17 | CO[C@H]1CCN(c2nccc(Nc3cc(NC4CCCC4)c(C(=O)N4CC(CS(C)(=O)=O)C4)cn3)n2)C[C@H]1F (relative stereo) [Example 13, (4-(cyclopentylamino)-6-((2-(cis-3-fluoro-4-methoxypiperidin-1-yl)pyrimidin-4-yl)amino)pyridin-3-yl)(3-((methylsulfonyl)meth-yl)azetidin-1-yl)methanone] | 500 to 5000 | 50 to 500
18 | C[C@H]1CCOc2c(cnn2C)-c2nccc(n2)Nc2cc(c(C(=O)NC(CCN(C)C)c3ccccc3)cn2)N1 (stereo partly drawn) [Example 120, (6S)-N-(3-(dimethylamino)-1-phenylpropyl)-1^1,6-dimethyl-1^1H-9-oxa-3,5-diaza-2(2,4)-pyrimidina-4(2,4)-pyridina-1(4,5)-pyrazolacyclo-nonaphane-4^5-carboxamide] | 500 to 5000 | < 50
19 | CS(=O)(=O)CC1CN(C(=O)c2cnc(Nc3ccnc(-c4cnn(S(=O)(=O)C5CC5)c4)n3)cc2NC2CCOC2)C1 (stereo not shown) [Example 7, (6-((2-(1-(cyclopropylsulfonyl)-1H-pyrazol-4-yl)pyrimidin-4-yl)amino)-4-((tetrahydrofuran-3-yl)amino)pyridin-3-yl)(3-((methylsulfonyl)meth-yl)azetidin-1-yl)methanone] | 500 to 5000 | < 50
20 | CC(C)Nc1cc(Nc2ccnc(-c3cnn(S(=O)(=O)C4CC4)c3)n2)ncc1C(=O)NCC(F)(F)F [Example 78, 6-((2-(1-(cyclopropylsulfonyl)-1H-pyrazol-4-yl)pyrimidin-4-yl)amino)-4-(isopropylamino)-N-(2,2,2-trifluoroethyl)nicotin-amide] | 500 to 5000 | < 50
